pIC50: −log10 of the molar value. Like-named read-outs stand apart in the source and are kept apart here.
Columns and labels:
Type in all cases: biochemical
MAGL [1] = molecular target: MAGL (Mus musculus (Mouse), UniProt O35678); test: In vitro competitive activity-based protein profiling (mouse brain membrane fraction or cell lysates), MAGL band; conditions: 1 μM; for inhibition at 1 µM: read-out: MAGL % Inh 1 μM (mouse)
Protocol: In Vitro Competitive Activity-Based Protein Profiling.
Proteomes (mouse brain membrane fraction or cell lysates) (50 μL, 1.0 mg/mL total protein concentration) were preincubated with varying concentrations of inhibitors at 37° C. After 30 min, FP—Rh (1.0 μL, 50 μM in DMSO) was added and the mixture was incubated for another 30 min at 37° C. Reactions were quenched with SDS loading buffer (50 μL-4×) and run on SDS-PAGE.

MAGL [2] = molecular target: MAGL (Homo sapiens (Human), UniProt Q99685); test: In vitro competitive activity-based protein profiling (human prefrontal cortex or cell membrane fractions; hMAGL expressed in HEK293T cells)
Protocol: In Vitro Competitive Activity-Based Protein Profiling (Human).
Proteomes (human prefrontal cortex or cell membrane fractions) (50 μL, 1.0-2.0 mg/mL total protein concentration) were preincubated with varying concentrations of inhibitors at 37° C. After 30 min, FP—Rh or JW912 (1.0 μL, 50 μM in DMSO) was added and the mixture was incubated for another 30 min at room temperature. Reactions were quenched with SDS loading buffer (15 μL-4×) and run on SDS-PAGE.
Recombinant Expression of Human MAGL in HEK293T Cells.
Cell lysates were diluted with mock proteomes for use in competitive ABPP experiments.

ABHD6 = ABHD6 (Mus musculus (Mouse), UniProt Q8R2Y0); test: In vitro competitive activity-based protein profiling (mouse brain membrane fraction or cell lysates), ABHD6 band; conditions: 1 μM, read-out: ABHD6 % Inh 1 μM (mouse)
In short: (§1)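 Residual hydrolase activity was measured as gel band fluorescence after FP-Rh labelling (30 min, 37° C) of proteomes pretreated 30 min at 37° C with inhibitor.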

FAAH = FAAH (Mus musculus (Mouse), UniProt O08914); test: In vitro competitive activity-based protein profiling (mouse brain membrane fraction or cell lysates), FAAH band; conditions: 1 μM; for inhibition at 1 µM: read-out: FAAH % Inh 1 μM (mouse)
In short: as §1

[3] = human proteome, competitive ABPP

FAAH, sequence (O08914 whole entry): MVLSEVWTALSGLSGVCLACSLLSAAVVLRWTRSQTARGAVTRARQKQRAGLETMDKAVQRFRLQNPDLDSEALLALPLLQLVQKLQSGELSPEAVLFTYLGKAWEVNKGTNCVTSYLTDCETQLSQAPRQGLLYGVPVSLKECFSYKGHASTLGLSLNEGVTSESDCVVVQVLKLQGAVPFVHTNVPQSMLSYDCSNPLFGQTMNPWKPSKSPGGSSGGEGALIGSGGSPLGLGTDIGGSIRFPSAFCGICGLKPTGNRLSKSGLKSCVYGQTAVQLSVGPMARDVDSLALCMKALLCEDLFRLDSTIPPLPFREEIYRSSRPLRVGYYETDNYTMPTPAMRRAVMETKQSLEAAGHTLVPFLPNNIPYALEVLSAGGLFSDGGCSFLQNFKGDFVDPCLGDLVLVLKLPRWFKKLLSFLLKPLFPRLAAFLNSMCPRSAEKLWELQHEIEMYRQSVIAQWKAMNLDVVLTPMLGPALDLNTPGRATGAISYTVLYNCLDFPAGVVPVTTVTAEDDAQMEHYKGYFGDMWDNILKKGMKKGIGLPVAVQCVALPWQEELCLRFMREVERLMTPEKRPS
MAGL (Homo sapiens (Human), UniProt Q99685), sequence (Q99685 whole entry): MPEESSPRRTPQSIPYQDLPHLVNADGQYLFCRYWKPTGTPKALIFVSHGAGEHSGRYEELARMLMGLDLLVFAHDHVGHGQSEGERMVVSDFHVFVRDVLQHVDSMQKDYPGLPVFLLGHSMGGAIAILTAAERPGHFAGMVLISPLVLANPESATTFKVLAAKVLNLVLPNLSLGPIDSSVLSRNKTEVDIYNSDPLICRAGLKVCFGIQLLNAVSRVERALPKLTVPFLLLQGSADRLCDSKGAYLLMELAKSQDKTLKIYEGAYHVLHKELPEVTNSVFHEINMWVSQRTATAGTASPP
MAGL (Mus musculus (Mouse), UniProt O35678), sequence (O35678 whole entry): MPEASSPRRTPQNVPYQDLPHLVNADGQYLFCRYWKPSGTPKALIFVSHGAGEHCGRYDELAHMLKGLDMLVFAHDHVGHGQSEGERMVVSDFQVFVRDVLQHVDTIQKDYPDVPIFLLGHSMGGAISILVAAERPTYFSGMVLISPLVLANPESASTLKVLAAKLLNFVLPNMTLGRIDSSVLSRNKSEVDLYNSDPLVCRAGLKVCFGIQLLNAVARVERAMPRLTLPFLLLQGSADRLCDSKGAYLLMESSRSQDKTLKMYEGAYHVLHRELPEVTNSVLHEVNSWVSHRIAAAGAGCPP
ABHD6, sequence (Q8R2Y0 whole entry): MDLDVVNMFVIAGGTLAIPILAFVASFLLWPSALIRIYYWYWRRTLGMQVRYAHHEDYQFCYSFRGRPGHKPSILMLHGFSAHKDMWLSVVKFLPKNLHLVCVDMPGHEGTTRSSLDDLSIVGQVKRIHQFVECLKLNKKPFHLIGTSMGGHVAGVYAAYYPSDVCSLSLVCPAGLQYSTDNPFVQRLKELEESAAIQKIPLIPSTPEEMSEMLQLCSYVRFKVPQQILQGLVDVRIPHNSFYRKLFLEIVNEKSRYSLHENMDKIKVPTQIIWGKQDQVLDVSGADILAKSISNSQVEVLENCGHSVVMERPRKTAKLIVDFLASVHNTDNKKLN

Row | SMILES | inhibition at 1 µM (MAGL [1]; mouse proteome) [%] | pIC50 (MAGL [2]; [3]) | inhibition at 1 µM (ABHD6; mouse proteome) [%] | inhibition at 1 µM (FAAH; mouse proteome) [%] | MAGL % Inh 1 μM (mouse) (MAGL [1]; mouse) | pIC50 (MAGL [2]; human) | inhibition at 1 µM (ABHD6; mouse) [%] | FAAH % Inh 1 μM (mouse) (FAAH; mouse) | inhibition at 1 µM (MAGL [1]; mouse) [%] | inhibition at 1 µM (FAAH; mouse) [%]
1 | C#Cc1ccc(CN2CCCC23CCN(C(=O)OC(C(F)(F)F)C(F)(F)F)CC3)c(N2CCC(C(=O)O)CC2)c1 [Example 198, 1-{5-Ethynyl-2-[(8-{[(1,1,1,3,3,3-hexafluoropropan-2-yl)oxy]carbonyl}-1,8-diazaspiro[4.5]decan-1-yl)methyl]phenyl}piperidine-4-carboxylic acid] | > 75 | > 7.00 | < 25 | < 25 | – | – | – | – | – | –
2 | O=C(O)C1CCN(c2cc(C(F)(F)F)ccc2CN2CCC3(CCN(C(=O)OC(C(F)(F)F)C(F)(F)F)CC3)C2)C1 (stereo not drawn) [Example 201] | > 75 | > 7.00 | ≥ 75 | < 25 | – | – | – | – | – | –
3 | O=C(O)C1CCN(c2cc(CN3CCC4(CCN(C(=O)OC(C(F)(F)F)C(F)(F)F)CC4)C3)cc(C(F)(F)F)c2)C1 (stereo not drawn) [Example 202] | > 75 | > 7.00 | ≥ 75 | < 25 | – | – | – | – | – | –
4 | O=C(O)C1CCN(c2cc(CN3CCCC34CCN(C(=O)OC(C(F)(F)F)C(F)(F)F)CC4)cc(C(F)(F)F)c2)C1 (stereo not drawn) [Example 203] | > 75 | > 7.00 | < 25 | < 25 | – | – | – | – | – | –
5 | O=C(O)C1CN(c2cc(CN3CCCC34CCN(C(=O)OC(C(F)(F)F)C(F)(F)F)CC4)cc(C(F)(F)F)c2)CCO1 (stereo not drawn) [Example 204] | > 75 | > 7.00 | < 25 | < 25 | – | – | – | – | – | –
6 | O=C(OC(C(F)(F)F)C(F)(F)F)N1CCC2(CCCN2Cc2cc(-c3nnn[nH]3)cc(C(F)(F)F)c2)CC1 [Example 205] | > 75 | > 7.00 | 25 to 75 | < 25 | – | – | – | – | – | –
7 | O=C(O)c1cc(CN2CCCC23CCN(C(=O)OC(C(F)(F)F)C(F)(F)F)CC3)cc(C(F)(F)F)c1 [Example 206] | > 75 | > 7.00 | 25 to 75 | < 25 | – | – | – | – | – | –
8 | O=C(O)C1CN(c2cc(C(F)(F)F)ccc2CN2CCC3(CCN(C(=O)OC(C(F)(F)F)C(F)(F)F)CC3)C2)CCO1 (stereo not drawn) [Example 209] | > 75 | > 7.00 | 25 to 75 | < 25 | – | – | – | – | – | –
9 | O=C(O)[C@H]1CCCN(c2cc(C(F)(F)F)ccc2CN2CCC3(CCN(C(=O)OC(C(F)(F)F)C(F)(F)F)CC3)C2)C1 [Example 215] | > 75 | > 7.00 | ≥ 75 | < 25 | – | – | – | – | – | –
10 | CC1(C(=O)O)CCN(c2cc(C(F)(F)F)ccc2CN2CCC3(CCN(C(=O)OC(C(F)(F)F)C(F)(F)F)CC3)C2)C1 (stereo not drawn) [Example 219] | > 75 | > 7.00 | ≥ 75 | < 25 | – | – | – | – | – | –
11 | O=C(O)[C@@H]1CCCN(c2cc(CN3CCC4(CCN(C(=O)OC(C(F)(F)F)C(F)(F)F)CC4)C3)cc(C(F)(F)F)c2)C1 [Example 222] | – | – | – | – | ### (### is ≥75%) | > 7.00 | < 25 | # (# is <25%) | – | –
12 | CC1(C(=O)O)CCCN(c2cc(CN3CCC4(CCN(C(=O)OC(C(F)(F)F)C(F)(F)F)CC4)C3)cc(C(F)(F)F)c2)C1 (stereo not drawn) [Example 223] | – | – | – | – | – | > 7.00 | < 25 | – | > 75 | < 25
13 | O=C(O)C1CCCCN1c1cc(CN2CCC3(CCN(C(=O)OC(C(F)(F)F)C(F)(F)F)CC3)C2)cc(C(F)(F)F)c1 (stereo not drawn) [Example 225] | – | – | – | – | – | > 7.00 | < 25 | – | > 75 | < 25
14 | O=C(O)C1CCN(c2ccc(CN3CCC4(CCN(C(=O)OC(C(F)(F)F)C(F)(F)F)CC4)C3)cc2C(F)(F)F)CC1 [Example 228] | – | – | – | – | – | > 7.00 | ≥ 75 | – | > 75 | < 25
15 | CC1(C(=O)O)CCN(c2cc(CN3CCC4(CCN(C(=O)OC(C(F)(F)F)C(F)(F)F)CC4)C3)cc(C(F)(F)F)c2)C1 (stereo not drawn) [Example 229] | – | – | – | – | – | > 7.00 | ≥ 75 | – | > 75 | < 25
16 | O=C(O)C1CCN(c2cc(Cl)cc(CN3CCC4(CCN(C(=O)OC(C(F)(F)F)C(F)(F)F)CC4)C3)c2)CC1 [Example 232] | – | – | – | – | – | > 7.00 | 25 to 75 | – | > 75 | < 25
17 | O=C(O)C1CCN(c2cc(F)cc(CN3CCC4(CCN(C(=O)OC(C(F)(F)F)C(F)(F)F)CC4)C3)c2)CC1 [Example 233] | – | – | – | – | – | > 7.00 | 25 to 75 | – | > 75 | < 25

Row | SMILES | inhibition at 1 µM (MAGL [1]; mouse proteome) [%] | pIC50 (MAGL [2]; [3]) | inhibition at 1 µM (ABHD6; mouse proteome) [%] | inhibition at 1 µM (FAAH; mouse proteome) [%] | MAGL % Inh 1 μM (mouse) (MAGL [1]; mouse) | pIC50 (MAGL [2]; human) | inhibition at 1 µM (ABHD6; mouse) [%] | FAAH % Inh 1 μM (mouse) (FAAH; mouse) | inhibition at 1 µM (MAGL [1]; mouse) [%] | inhibition at 1 µM (FAAH; mouse) [%]
18 | O=C(O)C1CCN(c2cc(CN3CCC4(CCN(C(=O)OC(C(F)(F)F)C(F)(F)F)CC4)C3)ccc2C(F)(F)F)CC1 [Example 234] | – | – | – | – | – | > 7.00 | ≥ 75 | – | > 75 | < 25
19 | O=C(O)C1CCN(Cc2cc(C(F)(F)F)ccc2CN2CCC3(CCN(C(=O)OC(C(F)(F)F)C(F)(F)F)CC3)C2)CC1 [Example 239] | – | – | – | – | – | > 7.00 | < 25 | – | > 75 | < 25
20 | O=C(O)C1CCN(c2cc(S(F)(F)(F)(F)F)ccc2CN2CCC3(CCN(C(=O)OC(C(F)(F)F)C(F)(F)F)CC3)C2)CC1 [Example 241] | – | – | – | – | – | > 7.00 | ≥ 75 | – | > 75 | < 25
21 | O=C(O)C1CCN(Cc2cc(CN3CCC4(CCN(C(=O)OC(C(F)(F)F)C(F)(F)F)CC4)C3)cc(C(F)(F)F)c2)CC1 [Example 245] | – | – | – | – | – | > 7.00 | ≥ 75 | – | > 75 | < 25
22 | O=C(O)C1CCN(Cc2ccc(CN3CCC4(CCN(C(=O)OC(C(F)(F)F)C(F)(F)F)CC4)C3)cc2C(F)(F)F)CC1 [Example 247] | – | – | – | – | – | > 7.00 | ≥ 75 | – | > 75 | < 25
23 | CC1(C(=O)O)CN(c2cc(CN3CCC4(CCN(C(=O)OC(C(F)(F)F)C(F)(F)F)CC4)C3)cc(C(F)(F)F)c2)CCO1 (stereo not drawn) [Example 252] | – | – | – | – | – | > 7.00 | ≥ 75 | – | > 75 | < 25
24 | O=C(O)c1ccc(CN2CCC3(CCN(C(=O)OC(C(F)(F)F)C(F)(F)F)CC3)C2)cc1C(F)(F)F [Example 258] | – | – | – | – | – | < 6.00 | ≥ 75 | – | > 75 | < 25
25 | O=C(O)c1cc(C(F)(F)F)ccc1CN1CCCC12CCN(C(=O)OC(C(F)(F)F)C(F)(F)F)CC2 [Example 261] | – | – | – | – | – | > 7.00 | < 25 | – | 25 to 75 | < 25
26 | O=C(O)C1CCN(c2cc(CN3CCCC34CCN(C(=O)OC(C(F)(F)F)C(F)(F)F)CC4)cc(S(F)(F)(F)(F)F)c2)CC1 [Example 263] | – | – | – | – | – | > 7.00 | 25 to 75 | – | > 75 | < 25
27 | O=C(O)C1CCN(c2cc(CN3CCC4(CCN(C(=O)OC(C(F)(F)F)C(F)(F)F)CC4)C3)cc(S(F)(F)(F)(F)F)c2)CC1 [Example 264] | – | – | – | – | – | > 7.00 | ≥ 75 | – | > 75 | < 25
28 | O=C(O)c1ccc(CN2CCCC23CCN(C(=O)OC(C(F)(F)F)C(F)(F)F)CC3)c(C(F)(F)F)c1 [Example 265] | – | – | – | – | – | > 7.00 | ≥ 75 | – | > 75 | < 25
29 | NC(=O)C1CCN(C(=O)c2cc(C(F)(F)F)ccc2CN2CCCC23CCN(C(=O)OC(C(F)(F)F)C(F)(F)F)CC3)CC1 [Example 276] | – | – | – | – | – | > 7.00 | 25 to 75 | – | > 75 | < 25
30 | O=C(O)C1CN(c2cc(CN3CCC4(CCN(C(=O)OC(C(F)(F)F)C(F)(F)F)CC4)C3)cc(C(F)(F)F)c2)CCO1 (stereo not drawn) [Example 277] | – | – | – | – | – | > 7.00 | ≥ 75 | – | > 75 | < 25
31 | O=C(O)C1COCCN1c1cc(CN2CCC3(CCN(C(=O)OC(C(F)(F)F)C(F)(F)F)CC3)C2)cc(C(F)(F)F)c1 (stereo not drawn) [Example 278] | – | – | – | – | – | > 7.00 | ≥ 75 | – | > 75 | < 25
32 | O=C(O)C1CCN(c2cc(CN3CCC4(CCN(C(=O)OC(C(F)(F)F)C(F)(F)F)CC4)C3)cc(C(F)(F)F)c2)CC1 [Example 279] | – | – | – | – | – | > 7.00 | ≥ 75 | – | > 75 | < 25
33 | C#Cc1ccc(CN2CCCC23CCN(C(=O)OC(C(F)(F)F)C(F)(F)F)CC3)cc1 [Example 280] | – | – | – | – | – | > 7.00 | < 25 | – | > 75 | < 25

— patent US10030020B2, “Spirocycle compounds and methods of making and using same” (Abide Therapeutics, Inc., priority 2016, dated 2018)
